{
  "source": "patent US6897230B2",
  "about": "“Bicyclo[3/1/0] hexane containing oxazolidinone antibiotics and derivatives thereof” (Kyorin Pharmaceutical Co., Ltd., priority 2001, dated 2005)",
  "key": {"[1]": {"tested_on": "Streptococcus pneumoniae PRQR (penicillin resistant, quinolone resistant)", "test": "MIC, agar dilution method", "type": "cell-based", "details": "Mueller-Hinton agar with 5% defibrinated horse blood, 5% CO2, 24 hours", "description": "(§1) The following in vitro results were obtained based on an agar dilution method except for C. pneumoniae. The activity is presented as the minimum inhibitory concentration (MIC).\n(§2) Streptococci and enterococci were tested on Mueller-Hinton agar supplemented with 5% defibrinated horse blood, using an approximate inoculum of 1×10^4 cfu/spot an incubation temperature of 35° C. in an atmosphere of 5% CO2 for 24 hours. The MIC was defined as the lowest concentration at which no visible bacterial growth was observed."}, "[2]": {"tested_on": "Streptococcus pneumoniae IID553", "test": "MIC, agar dilution method", "type": "cell-based", "details": "Mueller-Hinton agar with 5% defibrinated horse blood, 5% CO2, 24 hours", "description": "as §1, §2"}, "[3]": {"tested_on": "Streptococcus pyogenes IID692", "test": "MIC, agar dilution method", "type": "cell-based", "details": "Mueller-Hinton agar with 5% defibrinated horse blood, 5% CO2, 24 hours", "description": "as §1, §2"}, "[4]": {"tested_on": "Enterococcus faecium VRQR (vancomycin resistant, quinolone resistant)", "test": "MIC, agar dilution method", "type": "cell-based", "details": "Mueller-Hinton agar with 5% defibrinated horse blood, 5% CO2, 24 hours", "description": "as §1, §2"}, "[5]": {"tested_on": "Staphylococcus aureus MR (methicillin resistant)", "test": "MIC, agar dilution method", "type": "cell-based", "details": "Mueller-Hinton agar, 35 C, 24 hours", "description": "as §1\n(§3) S. aureus and M. catarrhalis were tested on Mueller-Hinton agar, using an approximate inoculum of 1×10^4 cfu/spot an incubation temperature of 35 C. for 24 hours. The MIC was defined as the lowest concentration at which no visible bacterial growth was observed."}, "[6]": {"tested_on": "Staphylococcus aureus Smith", "test": "MIC, agar dilution method", "type": "cell-based", "details": "Mueller-Hinton agar, 35 C, 24 hours", "description": "as §1, §3"}, "[7]": {"tested_on": "Moraxella catarrhalis ATCC25238", "test": "MIC, agar dilution method", "type": "cell-based", "details": "Mueller-Hinton agar, 35 C, 24 hours", "description": "as §1, §3"}, "[8]": {"tested_on": "Staphylococcus aureus CR (chloramphenicol resistant)", "test": "MIC, agar dilution method", "type": "cell-based", "details": "Mueller-Hinton agar, 35 C, 24 hours", "description": "as §1, §3"}, "[9]": {"tested_on": "Chlamydia pneumoniae ATCC VR-1360", "test": "MIC, inclusion formation in infected HeLa 229 cells", "type": "cell-based", "details": "ATCCVR1360, 72 hours, lowest concentration with no inclusion", "description": "as §1\nC. pneumoniae was tested using minimum essential medium supplemented with 10% heat-inactivated fetal bovine serum, 2 mM L-glutamine, […] cycloheximide and non essential amino acid. HeLa 229 cells were inoculated with 10^4 inclusion-forming units of C. pneumoniae strain per mL. Infected cells were incubated with test compounds in complete medium at 35C in an atmosphere of 5% CO2 for 72 hours. […] The MIC was defined as the lowest concentration at which no inclusion was observed."}},
  "note": "Where a name gives a salt, the structure may show the parent alone.",
  "data": [
    {"smiles": "CC(=O)NC[C@H]1CN(c2ccc(N3C[C@@H]4[C@@H](C#N)[C@@H]4C3)c(F)c2)C(=O)O1", "note": "[Example 46, N-[5(S)-3-[4-[(1α,5α,6α)-6-Cyano-3-azabicyclo[3.1.0]hexan-3-yl]-3-fluorophenyl]-2-oxooxazolidin-5-ylmethyl]acetamide]", "values": [
      {"measurement": "MIC", "setting": "[1]", "value": 0.25, "unit": "µg/mL"},
      {"measurement": "MIC", "setting": "[2]", "value": 0.5, "unit": "µg/mL"},
      {"measurement": "MIC", "setting": "[3]", "value": 0.25, "unit": "µg/mL"},
      {"measurement": "MIC", "setting": "[4]", "value": 0.5, "unit": "µg/mL"},
      {"measurement": "MIC", "setting": "[5]", "value": 0.25, "unit": "µg/mL"},
      {"measurement": "MIC", "setting": "[6]", "value": 0.25, "unit": "µg/mL"},
      {"measurement": "MIC", "setting": "[7]", "value": 2, "unit": "µg/mL"},
      {"measurement": "MIC", "setting": "[8]", "value": 1, "unit": "µg/mL"}
    ]},
    {"smiles": "CC(=O)NC[C@H]1CN(c2ccc(N3CCOCC3)c(F)c2)C(=O)O1", "note": "[Linezolid, reference compound]", "values": [
      {"measurement": "MIC", "setting": "[1]", "value": 1, "unit": "µg/mL"},
      {"measurement": "MIC", "setting": "[2]", "value": 2, "unit": "µg/mL"},
      {"measurement": "MIC", "setting": "[3]", "value": 1, "unit": "µg/mL"},
      {"measurement": "MIC", "setting": "[4]", "value": 2, "unit": "µg/mL"},
      {"measurement": "MIC", "setting": "[9]", "value": 8, "unit": "µg/mL"},
      {"measurement": "MIC", "setting": "[5]", "value": 1, "unit": "µg/mL"},
      {"measurement": "MIC", "setting": "[6]", "value": 1, "unit": "µg/mL"},
      {"measurement": "MIC", "setting": "[7]", "value": 4, "unit": "µg/mL"},
      {"measurement": "MIC", "setting": "[8]", "value": 16, "unit": "µg/mL"}
    ]},
    {"smiles": "CC(=O)NC[C@H]1CN(c2ccc(N3C[C@@H]4[C@@H](/C=N/O)[C@@H]4C3)c(F)c2)C(=O)O1", "note": "[Example 41, (E)-N-[5(S)-3-[3-Fluoro-4-[(1α,5α,6α)-6-[(hydroxyimino)methyl]-3-azabicyclo[3.1.0]hexan-3-yl]phenyl]-2-oxooxazolidin-5-ylmethyl]acetamide]", "values": [
      {"measurement": "MIC", "setting": "[1]", "value": 0.5, "unit": "µg/mL"},
      {"measurement": "MIC", "setting": "[2]", "value": 0.5, "unit": "µg/mL"},
      {"measurement": "MIC", "setting": "[3]", "value": 0.5, "unit": "µg/mL"},
      {"measurement": "MIC", "setting": "[4]", "value": 0.5, "unit": "µg/mL"},
      {"measurement": "MIC", "setting": "[5]", "value": 0.06, "unit": "µg/mL"},
      {"measurement": "MIC", "setting": "[6]", "value": 0.06, "unit": "µg/mL"},
      {"measurement": "MIC", "setting": "[7]", "value": 4, "unit": "µg/mL"},
      {"measurement": "MIC", "setting": "[8]", "value": 0.5, "unit": "µg/mL"}
    ]},
    {"smiles": "CC(=O)NC[C@H]1CN(c2ccc(N3C[C@@H]4[C@@H](C=O)[C@@H]4C3)c(F)c2)C(=O)O1", "note": "[Example 22, N-[5(S)-3-[3-Fluoro-4-[(1α,5α,6α)-6-formyl-3-azabicyclo[3.1.0]hexan-3-yl]phenyl]-2-oxooxazolidin-5-ylmethyl]acetamide]", "values": [
      {"measurement": "MIC", "setting": "[1]", "value": 0.5, "unit": "µg/mL"},
      {"measurement": "MIC", "setting": "[2]", "value": 0.5, "unit": "µg/mL"},
      {"measurement": "MIC", "setting": "[3]", "value": 0.5, "unit": "µg/mL"},
      {"measurement": "MIC", "setting": "[4]", "value": 0.5, "unit": "µg/mL"},
      {"measurement": "MIC", "setting": "[5]", "value": 0.016, "unit": "µg/mL"},
      {"measurement": "MIC", "setting": "[6]", "value": 0.06, "unit": "µg/mL"},
      {"measurement": "MIC", "setting": "[7]", "value": 2, "unit": "µg/mL"},
      {"measurement": "MIC", "setting": "[8]", "value": 0.5, "unit": "µg/mL"}
    ]},
    {"smiles": "CC(=O)NC[C@H]1CN(c2ccc(N3C[C@@H]4[C@@H](N)[C@@H]4C3)c(F)c2)C(=O)O1", "note": "[Example 8, N-[5(S)-3-[4-[(1α,5α,6α)-6-Amino-3-azabicyclo[3.1.0]hexan-3-yl]-3-fluorophenyl]-2-oxooxazolidin-5-ylmethyl]acetamide]", "values": [
      {"measurement": "MIC", "setting": "[1]", "value": 1, "unit": "µg/mL"},
      {"measurement": "MIC", "setting": "[2]", "value": 1, "unit": "µg/mL"},
      {"measurement": "MIC", "setting": "[3]", "value": 0.5, "unit": "µg/mL"},
      {"measurement": "MIC", "setting": "[4]", "value": 2, "unit": "µg/mL"},
      {"measurement": "MIC", "setting": "[9]", "value": 0.5, "unit": "µg/mL"},
      {"measurement": "MIC", "setting": "[5]", "value": 1, "unit": "µg/mL"},
      {"measurement": "MIC", "setting": "[6]", "value": 0.5, "unit": "µg/mL"},
      {"measurement": "MIC", "setting": "[8]", "value": 4, "unit": "µg/mL"}
    ]},
    {"smiles": "CC(=O)NC[C@H]1CN(c2ccc(C3=C[C@@H]4[C@@H](N)[C@@H]4C3)c(F)c2)C(=O)O1", "note": "(as salt: hydrochloride) [Example 50, N-[5(S)-3-[4-[(1α,5α,6α)-6-Aminobicyclo[3.1.0]hex-2-en-3-yl]-3-fluorophenyl]-2-oxooxazolidin-5-ylmethyl]acetamide Hydrochloride]", "values": [
      {"measurement": "melting point", "value": "215 to 220", "unit": "°C"}
    ]}
  ]
}
